Laboratory results published in ChEMBL document CHEMBL3745645, “Synthesis, in vitro antitumor activity, dihydrofolate reductase inhibition, DNA intercalation and structure-activity relationship studies of 1,3,5-triazine analogues” (Bioorg Med Chem Lett, 2016).

Legend:
Format in all cases: functional
[1] = system: MCF7; experiment: Cytotoxicity against human MCF7 cells at 10 uM after 48 hrs by SRB assay; conditions: MCF7, 48 h, read-out: GI
[2] = system: A498; experiment: Cytotoxicity against human A498 cells at 10 uM after 48 hrs by SRB assay; conditions: A498, 48 h, read-out: GI
[3] = system: SK-MEL-5; experiment: Cytotoxicity against human SK-MEL-5 cells at 10 uM after 48 hrs by SRB assay; conditions: SK-MEL-5, 48 h, read-out: GI
[4] = system: NCI-H226; experiment: Cytotoxicity against human NCI-H226 cells at 10 uM after 48 hrs by SRB assay; conditions: NCI-H226, 48 h, read-out: GI
[5] = system: U-251; experiment: Cytotoxicity against human U251 cells at 10 uM after 48 hrs by SRB assay; conditions: U-251, 48 h, read-out: GI
[6] = Cytotoxicity against human UO31 cells at 10 uM after 48 hrs by SRB assay; conditions: UO-31, 48 h, read-out: GI
[7] = Cytotoxicity against human Caki1 cells at 10 uM after 48 hrs by SRB assay; conditions: CAKI-1, 48 h, read-out: GI
[8] = Cytotoxicity against human IGROV1 cells at 10 uM after 48 hrs by SRB assay; conditions: IGROV-1, 48 h, read-out: GI
[9] = Cytotoxicity against human HOP62 cells at 10 uM after 48 hrs by SRB assay; conditions: HOP-62, 48 h, read-out: GI
[10] = Cytotoxicity against human MOLT4 cells at 10 uM after 48 hrs by SRB assay; conditions: MOLT-4, 48 h, read-out: GI
[11] = system: SN12C; experiment: Cytotoxicity against human SN12C cells at 10 uM after 48 hrs by SRB assay; conditions: read-out: GI
[12] = Cytotoxicity against human SF539 cells at 10 uM after 48 hrs by SRB assay; conditions: SF-539, 48 h, read-out: GI
[13] = Cytotoxicity against human DU145 cells at 10 uM after 48 hrs by SRB assay; conditions: DU-145, 48 h, read-out: GI
[14] = Cytotoxicity against human HOP92 cells at 10 uM after 48 hrs by SRB assay; conditions: HOP-92, 48 h, read-out: GI
[15] = system: MDA-MB-231; experiment: Cytotoxicity against human MDA-MB-231 cells at 10 uM after 48 hrs by SRB assay; conditions: MDA-MB-231, 48 h, read-out: GI
[16] = Cytotoxicity against human COLO205 cells at 10 uM after 48 hrs by SRB assay; conditions: COLO 205, 48 h, read-out: GI
[17] = Cytotoxicity against human OVCAR5 cells at 10 uM after 48 hrs by SRB assay; conditions: OVCAR-5, 48 h, read-out: GI
[18] = system: NCI-H522; experiment: Cytotoxicity against human NCI-H522 cells at 10 uM after 48 hrs by SRB assay; conditions: NCI-H522, 48 h, read-out: GI
[19] = system: M14; experiment: Cytotoxicity against human M14 cells at 10 uM after 48 hrs by SRB assay; conditions: M14, 48 h, read-out: GI
[20] = system: KM12; experiment: Cytotoxicity against human KM12 cells at 10 uM after 48 hrs by SRB assay; conditions: KM12, 48 h, read-out: GI
[21] = Cytotoxicity against human LOXIMVI cells at 10 uM after 48 hrs by SRB assay; conditions: LOX IMVI, read-out: GI
[22] = system: A549; experiment: Cytotoxicity against human A549 cells at 10 uM after 48 hrs by SRB assay; conditions: A549, 48 h, read-out: GI
[23] = Cytotoxicity against human SW620 cells at 10 uM after 48 hrs by SRB assay; conditions: SW-620, 48 h, read-out: GI
[24] = system: ACHN; experiment: Cytotoxicity against human ACHN cells at 10 uM after 48 hrs by SRB assay; conditions: read-out: GI
[25] = system: Malme-3M; experiment: Cytotoxicity against human MALME-3M cells at 10 uM after 48 hrs by SRB assay; conditions: read-out: GI
[26] = Cytotoxicity against human SNB75 cells at 10 uM after 48 hrs by SRB assay; conditions: SNB-75, 48 h, read-out: GI
[27] = system: SR; experiment: Cytotoxicity against human SR cells at 10 uM after 48 hrs by SRB assay; conditions: read-out: GI
[28] = system: T47D; experiment: Cytotoxicity against human T47D cells at 10 uM after 48 hrs by SRB assay; conditions: read-out: GI
[29] = Cytotoxicity against human SNB19 cells at 10 uM after 48 hrs by SRB assay; conditions: SNB-19, 48 h, read-out: GI

Compound Cc1nc2ccc(Nc3nc(NCCN)nc(Nc4ccc(F)cc4)n3)cc2n1Cc1ccccc1 has an inhibition of growth at 10 µM [1] of 39.1%, an inhibition of growth at 10 µM [2] of 25.5% and an inhibition of growth at 10 µM [3] of 25.5%. For the same compound, the inhibition of growth at 10 µM [4] was 13.8%, the inhibition of growth at 10 µM [5] was 46.5% and the inhibition of growth at 10 µM [6] was 13.7%. For the same compound, the inhibition of growth at 10 µM [7] was 1.79%, the inhibition of growth at 10 µM [8] was 0.38% and the inhibition of growth at 10 µM [9] was 20.6%. It also gave an inhibition of growth at 10 µM [10] of 40.7%, an inhibition of growth at 10 µM [11] of 24.8% and an inhibition of growth at 10 µM [12] of 0.19%. For the same compound, the inhibition of growth at 10 µM [13] was 8.56%, the inhibition of growth at 10 µM [14] was 56.8% and the inhibition of growth at 10 µM [15] was 42.9%. It also gave an inhibition of growth at 10 µM [16] of 33.6%, an inhibition of growth at 10 µM [17] of 6.17% and an inhibition of growth at 10 µM [18] of 31%. The inhibition of growth at 10 µM [19] was 16.4%, the inhibition of growth at 10 µM [20] was 26.8% and the inhibition of growth at 10 µM [21] was 30%. It also gave an inhibition of growth at 10 µM [22] of 13.2%, an inhibition of growth at 10 µM [23] of 1.71% and an inhibition of growth at 10 µM [24] of 8.19%. The inhibition of growth at 10 µM [25] was 26%, the inhibition of growth at 10 µM [26] was 20% and the inhibition of growth at 10 µM [27] was 88.9%. The inhibition of growth at 10 µM [28] was 23.2% and the inhibition of growth at 10 µM [29] was 10.1%.
